Experimental data as given in patent US20130337564A1, “Treatment of Pluripotent Cells” (Janssen Biotech, Inc., priority 2012, published 2013).
Several values for one entry are separate records, joined by “and”; a condition that tells them apart may be missing. Equal values may be shown once.

Legend:
[1] = tested on: cells expressing pluripotency markers derived from human embryonic stem cells; assay: MTS viability (toxicity) assay of cells expressing pluripotency markers; assay type: cell-based; set-up: Raw data (duplicate), first replicate / Average: unit not given here; settings: for viability at 10 µM: Homo sapiens, Embryonic stem cell; for viability at 10 µM / % Control: viability of cells expressing pluripotency markers, relative to control; for Average of raw data (duplicate), optical density at 490 nm: MTS on day 4
Summary of the method: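 A GSK-3B inhibitor library was screened for toxicity to pluripotency-marker-expressing cells. Compound was given in DMEM:F12 with 0.5% FCS and 100 ng/ml Activin A for two days, then replaced by medium with 2% FCS and Activin A. On day 4, MTS absorbance at 490 nm gave viability as percent of Activin A plus Wnt3a control wells.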

[2] = tested on: Sox17 expression in human embryonic stem cells (H9 line); assay: High content screening assay: Sox17 protein expression (differentiation); assay type: cell-based; settings: for fold induction at 10 µM: Homo sapiens, Embryonic stem cell, read-out: SOX17 Expression, Fold over Wnt 3a/AA control; for fold induction at 10 µM / SOX17 Expression, Fold over Wnt 3a/AA control: 10 μM test compound with 100 ng/ml activin A on days 1-2, H9, total intensity by IN Cell Analyzer, strong and moderate hits; for SOX-17 Expression Fold over Wnt 3a/AA control: total intensity normalised to Wnt 3a/AA control
Summary of the method: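 H9 hESCs on MATRIGEL treated days 1-2 with 10 μM compound in DMEM:F12, 0.5% FCS, 100 ng/ml activin A; days 3-4 with 2% FCS plus activin A without compound. Fixed cells immunostained for Sox17 or HNF-3beta with Draq5 nuclear counterstain. Cell number and staining intensity quantified by high-content imaging, 12 fields/well.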

[3] = MTS viability assay raw reading, replicate 1
[4] = MTS viability assay raw reading, replicate 2
[5] = average of duplicate MTS raw readings

SMILES	viability at 10 µM [1] [%]	fold induction at 10 µM [2]	SOX-17 Expression Total Intensity [2]	Raw data (duplicate), first replicate [1, 3]	Raw data (duplicate), second replicate [1, 4]	Average [1, 5]	Average of raw data (duplicate), optical density at 490 nm ([1]; cmpd conc 2.5 μM)	Average of raw data (duplicate), optical density at 490 nm ([1]; cmpd conc 5 μM)	Average of raw data (duplicate), optical density at 490 nm ([1]; cmpd conc 10 μM)	Average ([1]; MTS viability readout, average of duplicate raw data)	Raw data (duplicate), first replicate ([1]; MTS viability readout, raw value of replicate 1)	Raw data (duplicate), second replicate ([1]; MTS viability readout, raw value of replicate 2)	% Control [1]	SOX17 Expression, Fold over Wnt 3a/AA control [2]	SOX-17 Expression Fold over Wnt 3a/AA control [2] [fold]
O=C1NC(=O)C(c2cn(CCCO)c3ncccc23)=C1c1cnccn1 [Compound 47, 3-[1-(3-Hydroxypropyl)-1H-pyrrolo[2,3-b]pyridin-3-yl]-4-pyrazin-2-yl-1H-pyrrole-2,5-dione]	104	1.02	382680000												
O=C1NC(=O)C(c2cn(CCOCCOCCNC3CCCc4ccccc43)c3ccccc23)=C1c1cn(CCNC2CCCc3ccccc32)c2ccccc12 (stereo not drawn) [Compound 144, 3-{1-[2-(1,2,3,4-Tetrahydronaphthalen-1-ylamino)ethyl]-1H-indol-3-yl}-4-(1-{2-[(2-{[2-(1,2,3,4-tetrahydronaphthalen-1-ylamino)ethyl]oxy}ethyl)oxy]ethyl}-1H-indol-3-yl)-1H-pyrrole-2,5-dione]	106		339840000	0.840	0.832	0.836	0.2898	0.1473	0.1464						
CN(C)c1cccc(-n2cc(C3=C(c4nn(CCO)c5ccccc45)C(=O)NC3=O)c3ccccc32)c1 [Compound 145, 3-{1-[3-(Dimethylamino)phenyl]-1H-indol-3-yl}-4-[1-(2-hydroxyethyl)-1H-indazol-3-yl]-1H-pyrrole-2,5-dione]	105		238555000	0.831	0.822	0.826	0.7608	0.5871	0.1277						
CN(C)c1ccc(-n2cc(C3=C(c4nn(CCO)c5ccccc45)C(=O)NC3=O)c3cc(Cl)ccc32)cn1 [Compound 148, 3-{5-Chloro-1-[6-(dimethylamino)pyridin-3-yl]-1H-indol-3-yl}-4-[1-(2-hydroxyethyl)-1H-indazol-3-yl]-1H-pyrrole-2,5-dione]	88.8	0.719	699160000	0.753	0.687	0.720	0.2669	0.1559	0.1537						
COC(=O)c1cncc(-n2cc(C3=C(c4nn(CCO)c5ccccc45)C(=O)NC3=O)c3cc(Cl)ccc32)c1 [Compound 150, Methyl 5-(5-chloro-3-{4-[1-(2-hydroxyethyl)-1H-indazol-3-yl]-2,5-dioxo-2,5-dihydro-1H-pyrrol-3-yl}-1H-indol-1-yl)pyridine-3-carboxylate]	81.7		351070000				0.7630	0.6972	0.2259	0.673	0.668	0.678			
OCCC#Cc1nc(-c2ccc(F)cc2)c(-c2ccncc2)n1CCCc1ccccc1 [Compound 158, 4-[4-(4-Fluorophenyl)-1-(3-phenylpropyl)-5-pyridin-4-yl-1H-imidazol-2-yl]but-3-yn-1-ol]	77.7		324450000	0.629	0.659	0.644	0.7971	0.8183	0.6052						
O=C1NC(=O)C2=C1c1cn(c3ccccc13)CCOCCOCCOCCn1cc2c2ccccc21 [Compound 163, 6,7,9,10,12,13,15,16-Octahydro-23H-5,26:17,22-di(metheno)dibenzo[k,q]pyrrolo[3,4-n][1,4,7,10,19]trioxadiazacyclohenicosine-23,25(24H)-dione]			28506437	0.678	0.661	0.670							80.8%	0.9266 Fold over Wnt 3a/AA control	0.9266
O=C1NC(=O)C2=C1c1cn(c3ccccc13)CCOCCOCCn1cc2c2ccccc21 [Compound 164, 6,7,9,10,12,13-Hexahydro-20H-5,23:14,19-di(metheno)dibenzo[h,n]pyrrolo[3,4-k][1,4,7,16]dioxadiazacyclooctadecine-20,22(21H)-dione]			85949	0.603	0.584	0.593							69.4%		0.0028
O=C1NC(=O)C2=C1c1cn(c3ccccc13)CCOCCOCCOCCOCCn1cc2c2ccccc21 [Compound 165, 10,11,13,14,16,17,19,20,22,23-Decahydro-1H-9,4:24,29-di(metheno)dibenzo[n,t]pyrrolo[3,4-q][1,4,7,10,13,22]tetraoxadiazacyclotetracosine-1,3(2H)-dione]			32703235	0.690	0.674	0.682							83.3%	1.0630 Fold over Wnt 3a/AA control	1.0630
O=C(Nc1ccc(C(=O)N2CC3CSCCN3Cc3ccccc32)c(Cl)c1)c1cc(Cl)cc(Cl)c1 (stereo not drawn) [Compound 166, 3,5-Dichloro-N-[3-chloro-4-(3,4,12,12a-tetrahydro-1H-[1,4]thiazino[3,4-c][1,4]benzodiazepin-11(6H)-ylcarbonyl)phenyl]benzamide]	74.8		11388240	0.615	0.635	0.625									
O=C1NC(=O)C2=C1c1cn(c3ncccc13)CCOCCOCCOCCOCCOCCn1cc2c2cccnc21 [Compound 168, 10,11,13,14,16,17,19,20,22,23,25,26-Dodecahydro-1H-9,4:27,32-di(metheno)dipyrido[2,3-q:3′,2′-w]pyrrolo[3,4-t][1,4,7,10,13,16,25]pentaoxadiazacycloheptacosine-1,3(2H)-dione]			2574279	0.610	0.628	0.619							73.9%		0.0837
O=C1NC(=O)C2=C1c1cn(c3ncccc13)CCOCCOCCOCCOCCn1cc2c2cccnc21 [Compound 169]				0.681 and 0.636	0.698 and 0.621	0.689 and 0.629							84.5% and 75.4%	1.0342 Fold over Wnt 3a/AA control	
CN(C)CCCn1cc(C2=C(c3cccc4ccccc34)C(=O)NC2=O)c2cccnc21 [Compound 175, 3-{1-[3-(Dimethylamino)propyl]-1H-pyrrolo[2,3-b]pyridin-3-yl}-4-naphthalen-1-yl-1H-pyrrole-2,5-dione]	3		0	0.135	0.158	0.146									
O=C1NC(=O)C2=C1c1cn(c3ncccc13)CCOCCOCCn1cc2c2cccnc21 [Compound 180, 6,7,9,10,12,13-Hexahydro-20H-5,23:14,19-di(metheno)dipyrido[2,3-h:3′,2′-n]pyrrolo[3,4-k][1,4,7,16]dioxadiazacyclooctadecine-20,22(21H)-dione]			0	0.141 and 0.611	0.128 and 0.628										0.0000
O=C1NC(=O)C(c2cn(CCCO)c3ncccc23)=C1c1cn(CCCO)cn1 [Compound 182, 3-[1-(3-Hydroxypropyl)-1H-imidazol-4-yl]-4-[1-(3-hydroxypropyl)-1H-pyrrolo[2,3-b]pyridin-3-yl]-1H-pyrrole-2,5-dione]	100		0	0.802	0.801	0.802									
O=C1NC(=O)C(c2cn(CCCO)c3ncccc23)=C1c1cn(CCO)cn1 [Compound 183, 3-[1-(2-Hydroxyethyl)-1H-imidazol-4-yl]-4-[1-(3-hydroxypropyl)-1H-pyrrolo[2,3-b]pyridin-3-yl]-1H-pyrrole-2,5-dione]	82.6		48154	0.792	0.572	0.682									
